Data taken from patent US10377800B2, “Myelin oligodendrocyte glycoprotein (MOG) peptide” (APITOPE TECHNOLOGY (BRISTOL) LIMITED, priority 2013, dated 2019).

Experiments:
[1] = tested on: MOG-specific hybridoma T cell clones; experiment: Antigen processing independent presentation: peptides presented by live or p-formaldehyde fixed Mgar cells to T cell hybridoma clones, IL-2 production; format: cell-based, mice; details: FIG. 1; for identification as apitope: detailed study, overlapping peptides in region 25-60 displaced by one amino acid
Excerpt: A panel of 15-mer overlapping peptides spanning rhMOGED was synthesized using standard F-moc chemistry. […]
MOG-specific hybridoma T cell clones were generated by immunisation of DR2+ mice. DR2+ mice were immunised with either a pool of MOG overlapping peptides or rhMOGED in complete Freunds adjuvant (CFA). After 10 days, the spleen and draining lymph nodes were removed, CD4+ T cells were purified and restimulated with antigen/CFA in vitro. A week later, T cells were restimulated in vitro with antigen to increase the number of activated antigen-specific cells.
After 3 days, activated T cells were fused with the thymoma cell line BW 5147. Hybridoma clones were then selected using HAT selection medium and screened for peptide specificity by IL-2 ELISA.
Live or p-formaldehyde fixed Mgar (HLA-DR2+ve) cells were incubated with peptides in serum or in serum alone, together with T cells for 48 hours. The T cell proliferative response was measured by IL-2 production.

[2] = administered in solution; Anderton and Wraith (1998); cited from earlier work
I-A^S = biological target: T1, I-A^S (Mus musculus, UniProt P06345+P14437); details: cited from earlier work
T1 sequence (P14437 1-233): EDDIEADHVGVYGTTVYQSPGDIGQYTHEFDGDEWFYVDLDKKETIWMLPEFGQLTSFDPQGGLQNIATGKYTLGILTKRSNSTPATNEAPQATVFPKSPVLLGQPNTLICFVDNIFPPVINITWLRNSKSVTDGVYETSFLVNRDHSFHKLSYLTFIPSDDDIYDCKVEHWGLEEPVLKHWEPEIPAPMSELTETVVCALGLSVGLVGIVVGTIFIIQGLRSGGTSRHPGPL
T1 sequence (P06345 28-263): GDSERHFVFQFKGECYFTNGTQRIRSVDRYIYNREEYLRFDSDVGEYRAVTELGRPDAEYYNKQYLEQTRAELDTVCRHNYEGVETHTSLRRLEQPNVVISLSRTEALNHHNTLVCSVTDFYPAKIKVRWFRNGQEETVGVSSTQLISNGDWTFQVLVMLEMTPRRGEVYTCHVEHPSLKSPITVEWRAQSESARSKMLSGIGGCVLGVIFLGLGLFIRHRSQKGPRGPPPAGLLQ

DR2 transgenic mice = experiment: MOG-induced EAE model; format: in vivo; details: for Incidence (EAE) / Mean day of onset (EAE): Pertussis toxin day 0 and 2
Procedure: (§1) To test the capacity of ROK5 to prevent MOG-induced EAE in HLA-DR2 transgenic mice, the disease model was established in this strain of mice. To induce the disease, the encephalitogenic MOG peptide, mouse MOG 35-55 (mMOG35-55) was used. Then, ROK5 was tested in EAE prevention experiments as follows:
Two groups of DR2 transgenic mice were setup, at day zero, animals (n=7) in group “100 μg” received 100 μg mMOG35-55 in Complete Freund's Adjuvant (CFA) (100 μl, s.c., base of the tail injection), animals (n=8) in group “200 μg” received 200 μg mMOG35-55 in CFA. At day zero and day2, all animals received an injection of Pertussis toxin (200 ng in PBS, i.p.). Every day, clinical EAE was scored and animal body weight measured.

HLA-DR2 transgenic mice [3] = experiment: ROK5 EAE prevention, second experiment (5 pre-treatments); format: in vivo; details: pretreated 5 times, 3 days apart, 100 μg s.c. flank; EAE by 200 μg mMOG35-55; FIG. 7
Procedure: as §1
Experiment 2: with 5 ROK5 dose pre-treatments, followed by immunisation with mMOG35-55.
(§2) In each experiment, 10 mice were used per group.
(§3) A second experiment was performed where animals were pretreated 5 times (3 days apart) with either human ROK5 or PBS, 100 μg in 100 μl in CFA (s.c. injection in the flank), then all animals were immunised with 200 μg mMOG35-55 in CFA (s.c. injection at the base of the tail) and with 200 ng Pertussis toxin (200 ng in PBS, i.p.) at day zero and day 2. Every day, clinical EAE was scored.

HLA-DR2 transgenic mice [4] = experiment: Ex vivo tolerance assay: recall proliferation with MOG 35-55 after peptide pre-treatment and MOG 35-55/CFA challenge; details: 100 μg on days -8, -4 and -2; challenge 100 μg MOG 35-55 in CFA day 0; harvest day 10; FIG. 2
Procedure: (§4) HLA-DR2 transgenic mice were immunised with either 100 μg ROK5 (MOG 41-55), 100 μg MOG 35-55 or PBS on days −8, −4 and −2. On day 0, mice were challenged with 100 μg MOG 35-55 by injection in the tail base in combination with CFA.
On day 10, splenocytes and draining lymph nodes were harvested and their respective cell populations isolated and a recall proliferation assay was set up with MOG 35-55. Cells from individual mice were treated separately and data is plotted separately in FIG. 2. For the recall response cells were treated ex vivo with a dose range of MOG35-55 (100, 10, 1, 0.1, 0.01, 0 μg) and proliferation via ^3H-thymidine incorporation determined. Stimulation index (compared to proliferation with no antigen) was calculated for each condition.

HLA-DR2 transgenic mice [5] = experiment: ROK5 EAE prevention, first experiment (3 pre-treatments); format: in vivo; details: pretreated 3 times, FIG. 6; for severity of the disease induced by MOG (clinical EAE score): 3 days apart, 100 μg s.c. flank, EAE by 200 μg mMOG35-55
Procedure: as §1
Experiment 1: with 3 ROK5 dose pre-treatments, followed by immunisation with mMOG35-55.
as §2
as §3, with “A first” for “A second”, “pretreated 3” for “pretreated 5”, “either mouse ROK5,” for “either”, “2.” for “2. Every day, clinical EAE was scored.”
Every day, clinical EAE was scored and animal body weight measured.

splenocytes = experiment: Cytokine profiles of splenocyte supernatants after in vivo ROK5 pre-treatment, MOG35-55 immunisation and in vitro recall; design: species or system mice; details: ROK5 pretreatment vs PBS; FIG. 3
Procedure: as §4
The effect of ROK5 pre-treatment on various cytokine profiles was also investigated.

[6] = 100 μg mMOG35-55 in CFA s.c. base of tail, n=7
[7] = 200 μg mMOG35-55 in CFA s.c. base of tail, n=8

For “FSRVVHLYRNGKDQD (listed as Homo sapiens) [MOG 44-58, MOG peptide 44-58, apitope]”, the identification as apitope [1] was “identified as apitopes”.

In the case of “MBP [89-101]: myelin basic protein peptide 89-101, immunodominant antigen, not tolerogenic (PHLIRLFSRDAPG; UniProt P04370 89-101, looked up, fragment)”, the induction of tolerance [2] is listed as “ineffective at inducing tolerance” and the “affinity of binding to I-A^S” value (I-A^S) is listed as “relatively high affinity”.

With “MEVGWYRSPFSRVVHLYRNGK (listed as Mus musculus) [mMOG35-55, encephalitogenic MOG peptide used to induce EAE]” the “Incidence (EAE)” value (DR2 transgenic mice; [6]) was 4/7, the “Mean day of onset (EAE)” value (DR2 transgenic mice; [6]) was 12.25 days and the “Incidence (EAE)” value (DR2 transgenic mice; [7]) was 7/8. The “Mean day of onset (EAE)” value (DR2 transgenic mice; [7]) was 12 days and the “induction of EAE” value (DR2 transgenic mice; both doses (100 μg and 200 μg), FIGS. 5A, 5B) was “can induce EAE with a good incidence”.

With “PFSRVVHLYRNGKDQ (listed as Homo sapiens) [MOG 43-57, MOG peptide 43-57, apitope]” the identification as apitope [1] was “identified as apitopes”.

With “RPPFSRVVHLYRNGK (listed as Homo sapiens) [ROK5, human MOG peptide 41-55, apitope]” the “peak of disease burden (timing)” value (HLA-DR2 transgenic mice [3]) was “caused a delay in the peak of disease burden”, the “severity of disease (clinical EAE score)” value (HLA-DR2 transgenic mice [3]) was “reduced the severity of disease” and the “immune response to challenge with MOG 35-55 (recall proliferation, stimulation index)” value (HLA-DR2 transgenic mice [4]) was “able to suppress the immune response”. The “efficiency of human ROK5 compared with mouse ROK5 in reducing EAE severity” value (HLA-DR2 transgenic mice [5]; 100 μg) was “more efficient”, the “severity of the disease induced by MOG (clinical EAE score)” value (HLA-DR2 transgenic mice [5]) was “can reduce the severity of the disease” and the “presentation by fixed APC to T cells without further processing (apitope)” value ([1]; 15-mer peptides displaced by 5aa, fixed APC) was “could be presented by fixed APC to T cells without further processing”. The identification as apitope [1] was “identified as apitopes”, the “production of GM-CSF by splenocytes” value (splenocytes) was “clearly affected” and the “production of IFNγ by splenocytes” value (splenocytes) was “clearly affected”. The “production of IL6 by splenocytes” value (splenocytes) was “clearly affected” and the “production of IL-2 by splenocytes” value (splenocytes) was “clearly affected”.

In the case of “RSPFSRVVHLYRNGK (listed as Mus musculus) [mouse ROK5, mouse MOG 41-55, serine in position 42]”, the “severity of the disease induced by MOG (clinical EAE score)” value (HLA-DR2 transgenic mice [5]) was “can reduce the severity of the disease”.

For “SRVVHLYRNGKDQDG (listed as Homo sapiens) [MOG 45-59, MOG peptide 45-59, apitope]”, the identification as apitope [1] was “identified as apitopes”.
